In general, inhibition refers to the share of the control response that was lost under treatment.

The values that follow come from patent US6812250B2, “Carboxamide-substituted phenylurea derivatives, process for their preparation and their use as medicaments” (Aventis Pharma Deutschland GmbH, priority 2001, dated 2004).

This assay addresses T1, human glycogen phosphorylase a (Homo sapiens, UniProt P06737).
T1 sequence (P06737 1-847): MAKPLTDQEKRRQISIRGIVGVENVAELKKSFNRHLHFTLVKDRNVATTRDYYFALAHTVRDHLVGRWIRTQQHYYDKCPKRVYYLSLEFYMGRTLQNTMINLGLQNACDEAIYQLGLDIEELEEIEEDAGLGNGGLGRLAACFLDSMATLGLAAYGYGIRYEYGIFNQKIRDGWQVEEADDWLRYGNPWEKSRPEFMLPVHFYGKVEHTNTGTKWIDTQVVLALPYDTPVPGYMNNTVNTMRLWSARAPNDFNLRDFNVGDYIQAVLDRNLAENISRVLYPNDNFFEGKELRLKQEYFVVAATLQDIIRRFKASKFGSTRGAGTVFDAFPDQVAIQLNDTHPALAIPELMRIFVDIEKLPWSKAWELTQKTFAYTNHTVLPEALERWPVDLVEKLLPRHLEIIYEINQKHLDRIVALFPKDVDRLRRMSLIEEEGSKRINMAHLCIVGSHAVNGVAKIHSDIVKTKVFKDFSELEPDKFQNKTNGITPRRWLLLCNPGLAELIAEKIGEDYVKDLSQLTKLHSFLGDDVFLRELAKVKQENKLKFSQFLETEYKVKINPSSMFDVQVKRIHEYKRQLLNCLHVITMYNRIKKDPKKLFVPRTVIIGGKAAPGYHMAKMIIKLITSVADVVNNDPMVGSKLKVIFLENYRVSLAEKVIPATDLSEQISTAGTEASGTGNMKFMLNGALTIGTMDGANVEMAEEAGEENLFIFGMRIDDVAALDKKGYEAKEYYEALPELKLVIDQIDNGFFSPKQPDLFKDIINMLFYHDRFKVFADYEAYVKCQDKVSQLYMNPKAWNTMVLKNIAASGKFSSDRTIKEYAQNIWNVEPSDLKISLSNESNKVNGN
The assay is described as follows: Glycogen phosphorylase a activity assay. Conditions: 10 μM test substance; GPa activity measured in the reverse direction (glycogen synthesis from glucose 1-phosphate, liberated inorganic phosphate, absorption at 820 nm); in vitro. The assay is classed as biochemical. As to the method: Glycogen Phosphorylase a Activity Assay
The effect of compounds on the activity of the active form of glycogen phosphorylase (GPa) was measured in the reverse direction by following the synthesis of glycogen from glucose 1-phosphate by determining the liberation of inorganic phosphate. All the reactions were carried out as duplicate determinations in microtiter plates with 96 wells (Half Area Plates, Costar No 3696), measuring the change in absorption owing to the formation of the reaction product at the wavelength specified hereinafter in a Multiskan Ascent Elisa Reader (Lab Systems, Finland). […] The baseline glycogen phosphorylase a activity in the absence of test substance was determined by adding 10 μl of buffer solution T (0.1% DMSO). The mixture was incubated at room temperature for 40 minutes, and the liberated inorganic phosphate was measured by the general method of Drueckes et al. (Drueckes P, Schinzel R, Palm D, Anal Biochem 1995 Sep. 1;230(1):173-177) with the following modifications: 50 μl of a stop solution of 7.3 mM ammonium molybdate, 10.9 mM zinc acetate, 3.6% ascorbic acid, 0.9% SDS are added to 50 μl of the enzyme mixture. After incubation at 45° C. for 60 minutes, the absorption at 820 nm was measured. […]

With `CCOC(=O)N1CCC(NC(=O)c2ccc(Cl)c(NC(=O)NC(=O)c3ccccc3Cl)c2)CC1` [Example 1, Ethyl 4-{4-chloro-3-[3-(2-chlorobenzoyl)ureido]benzoylamino}piperidine-1-carboxylate], the inhibition at 10 µM came to 87%.
